From patent US8222218B2, “Cyclopropanated carbohydrates” (Seton Hall University, priority 2008, dated 2012) come the findings set out here.

What all share (type): in vivo
The nature of data set [1]: Acute toxicity, minimal motor impairment (rotorod), mice. To be noted: mice, rotorod; for TOX 30 0.5 h (animals toxic/tested) / TOX 30 4 h (animals toxic/tested): 30 mg/kg; for TOX 100 0.5 h (animals toxic/tested) / TOX 100 4 h (animals toxic/tested): 100 mg/kg; for TOX 300 0.5 h (animals toxic/tested) / TOX 300 4 h (animals toxic/tested): 300 mg/kg. The protocol: Toxicity was measured using the minimal motor impairment test described below.
Animals are monitored for overt signs of impaired neurological or muscular function to assess a compound's toxicity. In mice, the rotorod procedure is used to disclose minimal muscular or neurological impairment. When a mouse is placed on a rotating rod (6 rpm), the animal can maintain its equilibrium for long periods of time. The animal is considered toxic if it falls off the rotating rod three times during a 1 minute period. In rats, minimal motor deficit is indicated by ataxia, which is manifested by an abnormal, uncoordinated gait.

Data set [2] relates to metrazole-induced clonic seizures. The experiment in a line: Subcutaneous Metrazole Seizure Threshold Test (scMET), mice. To be noted: Mus musculus, sc. The protocol:
The subcutaneous injection of metrazole, which is a convulsant, produces clonic seizures in laboratory animals. The scMET test is designed to identify compounds that raise the seizure threshold of an animal. Mice are pretreated with test compound at 30, 100, and 300 mg/kg doses in a similar manner to the MES test. Rats are treated with a 50 mg/kg dose (p.o.). At the previously determined TPE of the test compound, the dose of metrazole that will induce convulsions in 97% of animals (CD97: 85 mg/kg mice) is injected into the loose fold of the skin in the midline of the neck. The animals are placed in isolation cages to minimize stress and observed for the next 30 minutes for the presence or absence of seizures. An episode of clonic spasms (approximately 3-5 seconds) of the fore and/or hindlimbs, jaws or vibrissae is taken as the endpoint.
(§1) Male and female albino CF1 mice (18-25 g, Charles River, Portage, Mich.) and male albino Sprague-Dawley rats (275-300 g, kindling test; 100-150 g all other tests; Charles River, Raleigh, N.C.) were used as experimental animals.

Data set [3] relates to MES-induced seizures. Briefly: Maximal Electroshock Seizure (MES) test, mice. Particulars: Mus musculus, ip.
Text: The MES test is a model for generalized tonic-clonic seizures. The seizures are highly reproducible and electrophysiologically consistent with human seizures. The test provides information about a compound's ability to prevent the spread of seizure when all neuronal circuits of the brain are maximally active. 60 Hz of alternating current (50 mA in mice, 150 mA in rats) is applied for 2 seconds via corneal electrodes that have been treated with an electrolyte solution containing an anesthetic (0.5% tetracaine HCl). Mice are tested at a variety of intervals after an i.p. injection of […] solution of the test compound (commonly in a 0.5% solution of methylcellulose) at 30, 100, and 300 mg/kg doses. Rats are examined after a 30 mg/kg (per os, p.o.) dose that is applied in a volume of 0.04 mL/g. An animal is considered “protected” from MES-induced seizures upon removal of the hind limb extensor component of the seizure.
as §1

The mark [4] stands for this setting: 0.4 h, read-out: scMET 30 0.4 h (animals protected/tested).
The mark [5] stands for this setting: 0.4 h, read-out: scMET 100 0.4 h (animals protected/tested).
The mark [6] stands for this setting: 0.4 h, read-out: scMET 300 0.4 h (animals protected/tested).
Setting [7] is: 0.5 h, read-out: scMET 30 0.5 h (animals protected/tested).
Setting [8] is: 0.5 h, read-out: scMET 100 0.5 h (animals protected/tested).
The mark [9] stands for this setting: 0.5 h, read-out: scMET 300 0.5 h (animals protected/tested).
Where [10] appears, read: 0.5 h, read-out: MES 30 0.5 h (animals protected/tested).
[11] abbreviates: 0.5 h, read-out: MES 100 0.5 h (animals protected/tested).
The mark [12] stands for this setting: 0.5 h, read-out: MES 300 0.5 h (animals protected/tested).
[13] abbreviates: 4 h, read-out: MES 30 4 h (animals protected/tested).
[14] abbreviates: 4 h, read-out: MES 100 4 h (animals protected/tested).
The mark [15] stands for this setting: 4 h, read-out: MES 300 4 h (animals protected/tested).
The mark [16] stands for this setting: mice, 30 mg/kg, 0.4 h, read-out: scMET 30 0.4 h (animals protected/tested).
The mark [17] stands for this setting: mice, 30 mg/kg, 0.5 h, read-out: scMET 30 0.5 h (animals protected/tested).
The mark [18] stands for this setting: mice, 100 mg/kg, 0.4 h, read-out: scMET 100 0.4 h (animals protected/tested).
Setting [19] is: mice, 100 mg/kg, 0.5 h, read-out: scMET 100 0.5 h (animals protected/tested).
[20] abbreviates: mice, 300 mg/kg, 0.4 h, read-out: scMET 300 0.4 h (animals protected/tested).
Setting [21] is: mice, 300 mg/kg, 0.5 h, read-out: scMET 300 0.5 h (animals protected/tested).
Where [22] appears, read: mice, i.p., 30 mg/kg, 0.5 h, read-out: MES 30 0.5 h (animals protected/tested).
The mark [23] stands for this setting: mice, i.p., 30 mg/kg, 4 h, read-out: MES 30 4 h (animals protected/tested).
The mark [24] stands for this setting: mice, i.p., 100 mg/kg, 0.5 h, read-out: MES 100 0.5 h (animals protected/tested).
The mark [25] stands for this setting: mice, i.p., 100 mg/kg, 4 h, read-out: MES 100 4 h (animals protected/tested).
Setting [26] is: mice, i.p., 300 mg/kg, 0.5 h, read-out: MES 300 0.5 h (animals protected/tested).
Setting [27] is: mice, i.p., 300 mg/kg, 4 h, read-out: MES 300 4 h (animals protected/tested).

Molecules are shown by their SMILES. Where two headings read alike, the source gives them in different places.

Regarding `CCOC(=O)[C@@H]1[C@H]2O[C@@H]3CO[Si](C(C)(C)C)(C(C)(C)C)O[C@H]3[C@H](OS(=O)(=O)N(C)C)[C@H]21` [Compound 5, (1S,1as,2R,2aR,6aR,7aS)-4,4-di-tert-butyl-2-dimethylsulfamoyloxy-hexahydro-3,5,7-trioxa-4-sila-cyclopropa[b]naphthalene-1-carboxylic acid ethyl ester], the “TOX 30 0.5 h (animals toxic/tested)” value in data set [1] is given as 0/4. Also, the “TOX 30 4 h (animals toxic/tested)” value in data set [1] is on record as 0/2. For the same compound, the “TOX 100 0.5 h (animals toxic/tested)” value in data set [1] was 0/8. Also, the “TOX 100 4 h (animals toxic/tested)” value in data set [1] is 0/4. The “TOX 300 0.5 h (animals toxic/tested)” value in data set [1] is 1/4. For the same compound, the “TOX 300 4 h (animals toxic/tested)” value in data set [1] is 0/2. Further, the responders at 30 mg/kg in data set [2] (setting [4]), in data set [2] (setting [7]), in data set [3] (setting [10]) and in data set [3] (setting [13]) was 0% throughout. The responders at 100 mg/kg in data set [2] (setting [5]), in data set [2] (setting [8]), in data set [3] (setting [11]) and in data set [3] (setting [14]) was 0% in each case. Moreover, the responders at 300 mg/kg in data set [2] (setting [6]), in data set [2] (setting [9]), in data set [3] (setting [12]) and in data set [3] (setting [15]) was 0% throughout.

On to `CCOC(=O)[C@@H]1[C@H]2O[C@@H]3CO[Si](C(C)(C)C)(C(C)(C)C)O[C@H]3/C(=N/O)[C@H]21` [Compound 4], for which the “TOX 30 0.5 h (animals toxic/tested)” value in data set [1] is 0/4. Moreover, the “TOX 30 4 h (animals toxic/tested)” value in data set [1] is listed as 0/2. For the same compound, in data set [1], the “TOX 100 0.5 h (animals toxic/tested)” value is given as 0/8. In addition, the “TOX 100 4 h (animals toxic/tested)” value in data set [1] was 1/4. Besides, the “TOX 300 0.5 h (animals toxic/tested)” value in data set [1] is given as 0/4. Besides, the “TOX 300 4 h (animals toxic/tested)” value in data set [1] is 0/2. For the same compound, the responders at 30 mg/kg in data set [2] (setting [4]), in data set [2] (setting [7]), in data set [3] (setting [10]) and in data set [3] (setting [13]) was 0% in each case. Further, the responders at 100 mg/kg in data set [2] (setting [5]), in data set [2] (setting [8]), in data set [3] (setting [11]) and in data set [3] (setting [14]) was 0% each time. Moreover, the responders at 300 mg/kg in data set [2] (setting [6]), in data set [2] (setting [9]), in data set [3] (setting [12]) and in data set [3] (setting [15]) was 0% throughout.

For the compound `CCOC(=O)C1[C@@H]2[C@@H](O)[C@@H]3O[C@H](c4cccc(OC)c4)OC[C@H]3O[C@H]12` (stereo partly drawn) [Compound 20e, Ethyl (2R,4aR,5aS,6aR,7R,7aS)-7-hydroxy-2-(3-methoxyphenyl)hexahydro-4H-cyclopropa[5,6]pyrano[3,2-d][1,3]dioxine-6-carboxylate], in data set [1], the “TOX 30 0.5 h (animals toxic/tested)” value was 0/4. Moreover, the “TOX 30 4 h (animals toxic/tested)” value in data set [1] is listed as 0/2. In addition, the “TOX 100 0.5 h (animals toxic/tested)” value in data set [1] is on record as 0/8. For the same compound, the “TOX 100 4 h (animals toxic/tested)” value in data set [1] was 0/4. Besides, the “TOX 300 0.5 h (animals toxic/tested)” value in data set [1] was 0/4. Also, the “TOX 300 4 h (animals toxic/tested)” value in data set [1] is 0/2. The responders at 30 mg/kg in data set [2] (setting [16]), in data set [2] (setting [17]), in data set [3] (setting [22]) and in data set [3] (setting [23]) was 0% throughout. Moreover, the responders at 100 mg/kg in data set [2] (setting [18]), in data set [2] (setting [19]), in data set [3] (setting [24]) and in data set [3] (setting [25]) was 0% in each case. The responders at 300 mg/kg in data set [2] (setting [20]), in data set [2] (setting [21]), in data set [3] (setting [26]) and in data set [3] (setting [27]) was 0% in each case.

For the compound `CCOC(=O)C1[C@@H]2[C@@H](OS(=O)(=O)N(C)C)[C@@H]3O[C@H](c4ccc(OC)cc4)OC[C@H]3O[C@H]12` (stereo partly drawn) [Compound 17a, Ethyl (2R,4aR,5aS,6aS,7R,7aR)-7-[(dimethylsulfamoyl)oxy]-2-(4-methoxyphenyl)hexahydro-4H-cyclopropa[5,6]pyrano[3,2-d][1,3]dioxine-6-carboxylate], the “TOX 30 0.5 h (animals toxic/tested)” value in data set [1] was 0/4. Besides, the “TOX 30 4 h (animals toxic/tested)” value in data set [1] is recorded as 0/2. Moreover, in data set [1], the “TOX 100 0.5 h (animals toxic/tested)” value is recorded as 0/8. The “TOX 100 4 h (animals toxic/tested)” value in data set [1] is recorded as 0/4. The “TOX 300 0.5 h (animals toxic/tested)” value in data set [1] is listed as 0/4. Also, the “TOX 300 4 h (animals toxic/tested)” value in data set [1] is given as 0/2. Further, the responders at 30 mg/kg in data set [2] (setting [16]), in data set [2] (setting [17]), in data set [3] (setting [22]) and in data set [3] (setting [23]) was 0% throughout. The responders at 100 mg/kg in data set [2] (setting [18]), in data set [2] (setting [19]), in data set [3] (setting [24]) and in data set [3] (setting [25]) was 0% throughout. Further, the responders at 300 mg/kg in data set [2] (setting [20]), in data set [2] (setting [21]), in data set [3] (setting [26]) and in data set [3] (setting [27]) was 0% in each case.

As for `CCOC(=O)C1[C@@H]2[C@@H](O)[C@@H]3OC(C)(C)OC[C@H]3O[C@H]12` (stereo partly drawn) [Compound 6a, Ethyl (4aR,5aS,6aR,7R,7aS)-7-hydroxy-2,2-dimethylhexahydro-4H-cyclopropa[5,6]pyrano[3,2-d][1,3]dioxine-6-carboxylate], the “TOX 30 0.5 h (animals toxic/tested)” value in data set [1] is 0/4. Moreover, the “TOX 30 4 h (animals toxic/tested)” value in data set [1] is 0/2. The “TOX 100 0.5 h (animals toxic/tested)” value in data set [1] is given as 0/8. Moreover, the “TOX 100 4 h (animals toxic/tested)” value in data set [1] was 0/4. Moreover, the “TOX 300 0.5 h (animals toxic/tested)” value in data set [1] is 0/4. Further, in data set [1], the “TOX 300 4 h (animals toxic/tested)” value was 0/2. The responders at 30 mg/kg in data set [2] (setting [16]), in data set [2] (setting [17]), in data set [3] (setting [22]) and in data set [3] (setting [23]) was 0% throughout. Besides, the responders at 100 mg/kg in data set [2] (setting [18]), in data set [2] (setting [19]), in data set [3] (setting [24]) and in data set [3] (setting [25]) was 0% throughout. Moreover, the responders at 300 mg/kg in data set [2] (setting [20]), in data set [2] (setting [21]), in data set [3] (setting [26]) and in data set [3] (setting [27]) was 0% throughout.
